Counter-ions that a name gives are not always drawn.
Target: CRAC channels (Homo sapiens (Human), UniProt Q96D31)
Assay: In-vitro CRAC channel inhibition assay in Jurkat cells (thapsigargin-induced calcium influx)
Type: cell-based
Procedure: 1A. In-Vitro CRAC Channel Inhibition Assay in Jurkat Cells
Plate is incubated at 37° C./5% CO2 for 30 min followed by further 15 min incubation at room temperature. Test compounds (DMSO stocks diluted in Ca^2+ and Mg^2+ free Hanks buffer) at desired concentrations were added to the wells and incubated for 15 min. Thapsigargin (1 μM final concentration) was added to the wells and incubated for 15 min to inhibit the Sarco-endoplasmic reticulum Ca^2+ ATPase pump thereby depleting endoplasmic calcium and raising cytosolic calcium concentrations. Store-operated calcium entry was initiated by adding extracellular Ca^2+ to a final concentration of 1.8 mM. Fluorescence was monitored over 5 min on a plate reader (BMG Labtech., Germany) with excitation at 485 nm and; an emission wavelength at 520 nm. Data were analyzed using GraphPad Prism. IC50 for each compound was determined based on the percent inhibition of thapsigargin-induced calcium influx into cells.

Sequence of CRAC channels (Q96D31 whole entry): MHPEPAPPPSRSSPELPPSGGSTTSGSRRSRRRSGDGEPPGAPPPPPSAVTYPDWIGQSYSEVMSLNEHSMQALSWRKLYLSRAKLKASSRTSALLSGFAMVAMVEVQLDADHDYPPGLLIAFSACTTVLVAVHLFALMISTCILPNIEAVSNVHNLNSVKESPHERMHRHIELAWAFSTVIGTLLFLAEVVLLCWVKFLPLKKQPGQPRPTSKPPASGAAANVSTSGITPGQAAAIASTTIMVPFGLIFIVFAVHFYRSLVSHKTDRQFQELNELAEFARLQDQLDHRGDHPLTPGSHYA

Compound | inhibition at 1 µM
O=C(Nc1ccc(-n2nc(C3CC3)cc2C2CC2)nc1)c1cccnc1 [Example 46, N-[6-(3,5-dicyclopropyl-1H-pyrazol-1-yl)pyridin-3-yl]nicotinamide dihydrochloride] | 0.26%
O=C(Nc1ccc(-n2nc(C3CC3)cc2C2CC2)nc1)c1ccncc1 [Example 47, N-[6-(3,5-dicyclopropyl-1H-pyrazol-1-yl)pyridin-3-yl]isonicotinamide dihydrochloride] | 10.4%
O=C(Nc1ccc(-n2nc(C3CC3)cc2C2CC2)nc1)c1ccncc1F [Example 48, N-[6-(3,5-dicyclopropyl-1H-pyrazol-1-yl)pyridin-3-yl]-3-fluoroisonicotinamide] | 12.3%
O=C(Nc1ccc(-n2nc(C3CC3)cc2C2CC2)nc1)c1c(Cl)cncc1Cl [Example 50, 3,5-dichloro-N-[6-(3,5-dicyclopropyl-1H-pyrazol-1-yl)pyridin-3-yl]isonicotinamide hydrochloride] | 29.8%
Cc1ncncc1C(=O)Nc1ccc(-n2nc(C3CC3)cc2C2CC2)nc1 [Example 51, N-[6-(3,5-dicyclopropyl-1H-pyrazol-1-yl)pyridin-3-yl]-4-methylpyrimidine-5-carboxamide hydrochloride] | 0%
Cc1ncsc1C(=O)N(C)c1ccc(-n2nc(C(F)(F)F)cc2C2CC2)cc1 [Example 54, N-{4-[5-cyclopropyl-3-(trifluoromethyl)-1H-pyrazol-1-yl]phenyl}-N,4-dimethylthiazole-5-carboxamide] | 0%
Cc1noc(C)c1C(=O)Nc1ccc(-n2nc(C(F)(F)F)cc2C2CC2)cc1 [Example 57, N-{4-[5-cyclopropyl-3-(trifluoromethyl)-1H-pyrazol-1-yl]phenyl}-3,5-dimethylisoxazole-4-carboxamide] | 83.8%
Cc1ncsc1CNc1ccc(-n2nc(C(F)(F)F)cc2C2CC2)cc1 [Example 74, 4-[5-cyclopropyl-3-(trifluoromethyl)-1H-pyrazol-1-yl]-N-[(4-methylthiazol-5-yl)methyl]aniline] | 100%
Cc1nnsc1NC(=O)Nc1ccc(-n2nc(C(F)(F)F)cc2C2CC2)cc1 [Example 75, 1-{4-[5-cyclopropyl-3-(trifluoromethyl)-1H-pyrazol-1-yl]phenyl}-3-(4-methyl-1,2,3-thiadiazol-5-yl)urea] | 0%
Cc1ncncc1NC(=O)Nc1ccc(-n2nc(C(F)(F)F)cc2C2CC2)cc1 [Example 77, 1-{4-[5-cyclopropyl-3-(trifluoromethyl)-1H-pyrazol-1-yl]phenyl}-3-(4-methylpyrimidin-5-yl)urea] | 44%
Cc1ncsc1C(=O)Nc1ccc(-n2nc(C(F)(F)F)c(Cl)c2C2CC2)cc1 [Example 80, N-{4-[4-chloro-5-cyclopropyl-3-(trifluoromethyl)-1H-pyrazol-1-yl]phenyl}-4-methylthiazole-5-carboxamide] | 81.6%
O=C(Cc1ccccn1)Nc1ccc(-n2nc(C(F)(F)F)c(Cl)c2C2CC2)cc1 [Example 81, N-{4-[4-chloro-5-cyclopropyl-3-(trifluoromethyl)-1H-pyrazol-1-yl]phenyl}-2-(pyridin-2-yl)acetamide hydrochloride] | 56.1%
Cc1oncc1C(=O)Nc1ccc(-n2nc(C(F)(F)F)cc2C2CC2)c(F)c1 [Example 84, N-{4-[5-cyclopropyl-3-(trifluoromethyl)-1H-pyrazol-1-yl]-3-fluorophenyl}-5-methylisoxazole-4-carboxamide] | 100%
Cc1noc(C)c1C(=O)Nc1ccc(-n2nc(C(F)(F)F)cc2C2CC2)c(F)c1 [Example 85, N-{4-[5-cyclopropyl-3-(trifluoromethyl)-1H-pyrazol-1-yl]-3-nuorophenyl}-3,5-dimethylisoxazole-4-carboxamide] | 76.6%
Cc1ccccc1C(=O)Nc1ccc(-n2nc(C(F)(F)F)cc2C2CC2)c(F)c1 [Example 86, N-{4-[5-cyclopropyl-3-(trifluoromethyl)-1H-pyrazol-1-yl]-3-fluorophenyl}-2-methylbenzamide] | 86.6%
O=C(Nc1ccc(-n2nc(C(F)(F)F)cc2C2CC2)c(F)c1)c1cccc(F)c1F [Example 87, N-{4-[5-cyclopropyl-3-(trifluoromethyl)-1H-pyrazol-1-yl]-3-fluorophenyl}-2,3-difluorobenzamide] | 91.6%
O=C(Nc1ccc(-n2nc(C(F)(F)F)cc2C2CC2)c(F)c1)c1cccnc1 [Example 89, N-{4-[5-cyclopropyl-3-(trifluoromethyl)-1H-pyrazol-1-yl]-3-fluorophenyl}nicotinamide hydrochloride] | 100%
Cc1ncncc1C(=O)N(C)c1ccc(-n2nc(C(F)(F)F)cc2C2CC2)c(F)c1 [Example 94, N-{4-[5-cyclopropyl-3-(trifluoromethyl)-1H-pyrazol-1-yl]-3-fluorophenyl}-N,4-dimethylpyrimidine-5-carboxamide] | 45.4%
Cc1nnsc1C(=O)Nc1ccc(-n2nc(C(F)(F)F)c(Cl)c2C2CC2)c(F)c1 [Example 95, N-{4-[4-chloro-5-cyclopropyl-3-(trifluoromethyl)-1H-pyrazol-1-yl]-3-fluorophenyl}-4-methyl-1,2,3-thiadiazole-5-carboxamide] | 100%

The remaining lines, values ahead:

inhibition at 1 µM | Compound
40.5% | Cn1ccnc1C(=O)Nc1ccc(-n2nc(C(F)(F)F)cc2C2CC2)cc1 [Example 58, N-{4-[5-cyclopropyl-3-(trifluoromethyl)-1H-pyrazol-1-yl]phenyl}-1-methyl-1H-imidazole-2-carboxamide]
83.7% | Cc1ccccc1C(=O)Nc1ccc(-n2nc(C(F)(F)F)cc2C2CC2)cc1 [Example 60, N-{4-[5-cyclopropyl-3-(trifluoromethyl)-1H-pyrazol-1-yl]phenyl}-2-methylbenzamide]
100% | O=C(Nc1ccc(-n2nc(C(F)(F)F)cc2C2CC2)cc1)c1cccc(F)c1F [Example 61, N-{4-[5-cyclopropyl-3-(trifluoromethyl)-1H-pyrazol-1-yl]phenyl}-2,3-difluorobenzamide]
100% | O=C(Nc1ccc(-n2nc(C(F)(F)F)cc2C2CC2)cc1)c1c(F)cccc1F [Example 62, N-{4-[5-cyclopropyl-3-(trifluoromethyl)-1H-pyrazol-1-yl]phenyl}-2,6-difluorobenzamide]
39.1% | CS(=O)(=O)c1cccc(C(=O)Nc2ccc(-n3nc(C(F)(F)F)cc3C3CC3)cc2)c1 [Example 63, N-{4-[5-cyclopropyl-3-(trifluoromethyl)-1H-pyrazol-1-yl]phenyl}-3-(methylsulfonyl)benzamide]
100% | CSc1ccc(Cl)c(C(=O)Nc2ccc(-n3nc(C(F)(F)F)cc3C3CC3)cc2)c1 [Example 64, 2-chloro-N-{4-[5-cyclopropyl-3-(trifluoromethyl)-1H-pyrazol-1-yl]phenyl}-5-(methylthio)benzamide]
97.9% | CS(=O)(=O)c1ccc(Cl)c(C(=O)Nc2ccc(-n3nc(C(F)(F)F)cc3C3CC3)cc2)c1 [Example 65, 2-chloro-N-{4-[5-cyclopropyl-3-(trifluoromethyl)-1H-pyrazol-1-yl]phenyl}-5-(methylsulfonyl)benzamide]
100% | O=C(Nc1ccc(-n2nc(C(F)(F)F)cc2C2CC2)cc1)c1ccncc1 [Example 66, N-{4-[5-cyclopropyl-3-(trifluoromethyl)-1H-pyrazol-1-yl]phenyl}pyridine-4-carboxamide hydrochloride]
100% | O=C(Nc1ccc(-n2nc(C(F)(F)F)cc2C2CC2)cc1)c1ccncc1F [Example 67, N-{4-[5-cyclopropyl-3-(trifluoromethyl)-1H-pyrazol-1-yl]phenyl}-3-fluoroisonicotinamide]
61.5% | Cc1ncncc1C(=O)Nc1ccc(-n2nc(C(F)(F)F)cc2C2CC2)cc1 [Example 68, N-{4-[5-cyclopropyl-3-(trifluoromethyl)-1H-pyrazol-1-yl]phenyl}-4-methylpyrimidine-5-carboxamide]
68.9% | O=C(Cc1ccc(F)cc1)Nc1ccc(-n2nc(C(F)(F)F)cc2C2CC2)cc1 [Example 70, N-{4-[5-cyclopropyl-3-(trifluoromethyl)-1H-pyrazol-1-yl]phenyl}-2-(4-fluorophenyl)acetamide]
100% | O=C(Cc1ccccn1)Nc1ccc(-n2nc(C(F)(F)F)cc2C2CC2)cc1 [Example 71, N-{4-[5-cyclopropyl-3-(trifluoromethyl)-1H-pyrazol-1-yl]phenyl}-2-(pyridin-2-yl)acetamide hydrochloride]
100% | O=C(Cc1cccnc1)Nc1ccc(-n2nc(C(F)(F)F)cc2C2CC2)cc1 [Example 72, N-{4-[5-cyclopropyl-3-(trifluoromethyl)-1H-pyrazol-1-yl]phenyl}-2-(pyridin-3-yl)acetamide hydrochloride]
68% | O=C(Cc1ccncc1)Nc1ccc(-n2nc(C(F)(F)F)cc2C2CC2)cc1 [Example 73, N-{4-[5-cyclopropyl-3-(trifluoromethyl)-1H-pyrazol-1-yl]phenyl}-2-(pyridin-4-yl)acetamide hydrochloride]
92.3% | Cc1ncsc1NC(=O)Nc1ccc(-n2nc(C(F)(F)F)cc2C2CC2)cc1 [Example 76, 1-{4-[5-cyclopropyl-3-(trifluoromethyl)-1H-pyrazol-1-yl]phenyl}-3-(4-methylthiazol-5-yl)urea]
100% | O=C(Nc1c(F)cccc1F)c1ccc(-n2nc(C(F)(F)F)cc2C2CC2)cc1 [Example 79, 4-[5-cyclopropyl-3-(trifluororomethyl)-1H-pyrazol-1-yl]-N-(2,6-difluorophenyl) benzamide]

— US10668051B2, “Modulators of calcium release-activated calcium channel” (Rhizen Pharmaceuticals SA, priority 2009, dated 2020)
